Values quoted from earlier work as cited in patent US9861647B2 (Prelief Inc., priority 2007, dated 2018).
Where two headings read alike, the source gives them in different places.

Tested on: ragweed sensitized Beagle dogs
Conditions: Rudolph et al., 2003, cited from earlier work

Row | Compound | RW-induced nasal congestion (chlorpheniramine 10 mg/kg) | RW-induced nasal congestion (pseudoephedrine 3 mg/kg)
1 | CN(C)CCC(c1ccc(Cl)cc1)c1ccccn1 (centres unmarked) [chlorpheniramine] | can prevent the development of RW-induced nasal congestion | 
2 | CN[C@@H](C)[C@@H](O)c1ccccc1 [pseudoephedrine] |  | can prevent the development of RW-induced nasal congestion
